One assay has as its target T1, PLK1 (Homo sapiens, UniProt P53350).
T1 construct: purchased Invitrogen (Paisley, UK), assay service
As to the kind of experiment: PLK1 enzyme assay (Z'-LYTE, Invitrogen). The note with it: ATP at or close to Km, 60 minute kinase reaction; read-out: Inhibitor Activity vs PLK1. It counts as biochemical. As for the experimental part: The ability of compounds to inhibit PLK-1 kinase activity was measured in an assay performed by Invitrogen (Paisley, UK). The Z′-LYTE™ biochemical assay employs a fluorescence-based, coupled-enzyme format and is based on the differential sensitivity of phosphorylated and non-phosphorylated peptides to proteolytic cleavage. The peptide substrate is labelled with two fluorophores—one at each end—that make up a FRET pair. In the primary reaction, the kinase transfers the gamma-phosphate of ATP to a single serine or threonine residue in a synthetic FRET-peptide. In the secondary reaction, a site-specific protease recognizes and cleaves non-phosphorylated FRET-peptides. Phosphorylation of FRET-peptides suppresses cleavage by the Development Reagent. Cleavage disrupts FRET between the donor (i.e., coumarin) and acceptor (i.e., fluorescein) fluorophores on the FRET-peptide, whereas uncleaved, phosphorylated FRET-peptides maintain FRET. A […] method, which calculates the ratio (the Emission Ratio) of donor emission to acceptor emission after excitation of the donor fluorophore at 400 nm, is used to quantitate reaction progress.
The final 10 μl Kinase Reaction consists of 2.8-25.3 ng PLK1, 2 μM Ser/Thr 16 Peptide substrate and ATP in 50 mM HEPES pH 7.5, 0.01% BRIJ-35, 10 mM MgCl2, 1 mM EGTA. The assay is performed at an ATP concentration at, or close to, the Km. After the 60 minute Kinase Reaction incubation at room temperature, 5 μl of a 1:8 dilution of Development Reagent is added. The assay plate is incubated for a further 60 minutes at room temperature and read on a fluorescence plate reader.
Duplicate data points are generated from a ⅓ log dilution series of a stock solution of test compound in DMSO. Nine dilutions steps are made from a top concentration of 10 μM, and a “no compound” blank is included. Data is collected and analysed using XLfit software from IDBS. The dose response curve is curve fitted to model number 205 (sigmoidal dose-response model). From the curve generated, the concentration giving 50% inhibition is determined and reported.

The test system of another assay is HCT 116 cell line. Nature of the assay: Cell inhibition assay (WST-1 proliferation). In kind it is cell-based. The note with it: Homo sapiens, 120 hrs incubation, read-out: Inhibitor Activity vs HCT 116 cell line. The protocol:
Cells were seeded in 96W tissue culture plates (1 well=30 mm^2) at a density of 500 cells per well in 50 μl of the appropriate culture medium (see below). 24 hrs later 50 μl of the compound prepared in the same medium was added as 4 fold dilutions to give final concentrations in the range 0.15 nM-2500 nM (n=6 for each concentration). The plates were then incubated at 37° C., 5% CO2 for 120 hrs. Cell proliferation was assessed using WST-1 (a metabolic indicator dye, Roche Cat no. 1 644 807) according to the manufacturers instructions. The results were calculated as percentage of vehicle response and IC50 values represent the concentration of compound that inhibited the vehicle response by 50%.
HCT-116 Culture Medium—Dulbeccos MEM (Sigma D6546) plus 10% heat inactivated fetal calf serum (Hyclone SH30071 Thermo Fischer Scientific) containing 2 mM Glutamine (Sigma cat no G-7513) and 50 U/ml Penicillin and Streptomycin Sulphate (Sigma Cat no P-0781).
Background: Tetrazolium dyes change colour on reduction, which living cells bring about.

T1 sequence (P53350 whole entry): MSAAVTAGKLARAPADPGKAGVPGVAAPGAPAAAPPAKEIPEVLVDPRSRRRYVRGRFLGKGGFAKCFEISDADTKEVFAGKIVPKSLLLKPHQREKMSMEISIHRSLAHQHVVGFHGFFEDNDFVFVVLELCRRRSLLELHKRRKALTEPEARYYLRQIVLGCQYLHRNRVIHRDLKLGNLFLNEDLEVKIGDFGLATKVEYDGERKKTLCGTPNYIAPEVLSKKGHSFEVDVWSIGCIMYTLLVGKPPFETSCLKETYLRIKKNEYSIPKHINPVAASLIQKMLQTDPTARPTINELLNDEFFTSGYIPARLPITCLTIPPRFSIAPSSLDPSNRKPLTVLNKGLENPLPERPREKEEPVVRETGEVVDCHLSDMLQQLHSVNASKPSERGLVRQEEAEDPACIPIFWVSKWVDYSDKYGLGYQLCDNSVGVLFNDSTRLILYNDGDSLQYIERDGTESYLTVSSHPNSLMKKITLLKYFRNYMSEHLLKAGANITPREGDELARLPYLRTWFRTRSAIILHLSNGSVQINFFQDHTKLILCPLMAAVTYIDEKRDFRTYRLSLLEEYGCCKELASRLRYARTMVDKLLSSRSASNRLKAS

For `CC[C@@H]1C(=O)N(C)c2cnc(Nc3ccc(C(=O)NC4CCN(CCNC(=O)N[C@@H](CC(C)C)C(=O)OC5CCCC5)CC4)cc3OC)nc2N1C1CCCC1` [Example 8, Cyclopentyl N-[(2-{4-[(4-{[(7R)-8-cyclopentyl-7-ethyl-5-methyl-6-oxo-5,6,7,8-tetrahydropteridin-2-yl]amino}-3-methoxybenzoyl)amino]piperidin-1-yl}ethyl)carbamoyl]-L-leucinate], the IC50 at PLK1 and in the assay on HCT 116 cell line was below 100 nM throughout. Turning to `CC[C@@H]1C(=O)N(C)c2cnc(Nc3ccc(C(=O)NC4CCN(CCCC(=O)N[C@H](CC(C)C)C(=O)O)CC4)cc3OC)nc2N1C1CCCC1` [Example 19, N-(4-{4-[(4-{[(7R)-8-Cyclopentyl-7-ethyl-5-methyl-6-oxo-5,6,7,8-tetrahydropteridin-2-yl]amino}-3-methoxybenzoyl)amino]Piperidin-1-yl}butanoyl)-D-leucine], on PLK1, the IC50 was below 100 nM. Turning to `CC[C@@H]1C(=O)N(C)c2cnc(Nc3ccc(C(=O)NC4CCN(CCCC(=O)N[C@@H](C(=O)OC5CCCC5)C5CCCCC5)CC4)cc3OC)nc2N1C1CCCC1` [Example 5, Cyclopentyl (2R)-cyclohexyl [(4-{4-[(4-{[(7R)-8-cyclopentyl-7-ethyl-5-methyl-6-oxo-5,6,7,8-tetrahydropteridin-2-yl]amino}-3-methoxybenzoyl)amino]piperidin-1-yl}butanoyl)amino]acetate], the results for the IC50 on PLK1 and with HCT 116 cell line were 100 to 500 nM and above 500 nM, respectively. `CC[C@@H]1C(=O)N(C)c2cnc(Nc3ccc(C(=O)NCCCC(=O)N[C@@H](CC(C)C)C(=O)O)cc3OC)nc2N1C1CCCC1` [Example 27, N-{4-[(4-{[(7R)-8-Cyclopentyl-7-ethyl-5-methyl-6-oxo-5,6,7,8-tetrahydropteridin-2-yl]amino}-3-methoxybenzoyl)amino]butanoyl}-L-leucine]: the IC50 on PLK1 was below 100 nM. With `CC[C@@H]1C(=O)N(C)c2cnc(Nc3ccc(C(=O)NC4CCN(CCCC(=O)N[C@H](C(=O)OC5CCCC5)c5ccccc5)CC4)cc3OC)nc2N1C1CCCC1` [Example 3, Cyclopentyl (2S)-[(4-{4-[(4-{[(7R)-8-cyclopentyl-7-ethyl-5-methyl-6-oxo-5,6,7,8-tetrahydropteridin-2-yl]amino}-3-methoxybenzoyl)amino]piperidin-1-yl}butanoyl)amino](Phenyl)acetate], the IC50 on PLK1 and in the assay with HCT 116 cell line was below 100 nM throughout. Take `CC[C@@H]1C(=O)N(C)c2cnc(Nc3ccc(C(=O)Nc4ccc(CCCC(=O)N[C@@H](CC(C)C)C(=O)OC5CCCC5)cc4)cc3OC)nc2N1C1CCCC1` [Example 12, Cyclopentyl N-(4-{4-[(4-{[(7R)-8-cyclopentyl-7-ethyl-5-methyl-6-oxo-5,6,7,8-tetrahydropteridin-2-yl]amino}-3-methoxybenzoyl)amino]phenyl}butanoyl)-L-leucinate]: the values for the IC50 at PLK1 and in the assay with HCT 116 cell line were 100 to 500 nM and below 100 nM, respectively. Consider `CC[C@@H]1C(=O)N(C)c2cnc(Nc3ccc(C(=O)NC4CCN(CCCC(=O)N[C@@H](CC(C)C)C(=O)O)CC4)cc3OC)nc2N1C1CCCC1` [Example 18, N-(4-{4-[(4-{[(7R)-8-Cyclopentyl-7-ethyl-5-methyl-6-oxo-5,6,7,8-tetrahydropteridin-2-yl]amino}-3-methoxybenzoyl)amino]piperidin-1-yl}butanoyl)-L-leucine], for which the IC50 at PLK1 was below 100 nM. On the same count and under the same terms, to `CC[C@@H]1C(=O)N(C)c2cnc(Nc3ccc(C(=O)Nc4ccc(CCCC(=O)N[C@@H](CC(C)C)C(=O)O)cc4)cc3OC)nc2N1C1CCCC1` [Example 26, N-(4-{4-[(4-{[(7R)-8-Cyclopentyl-7-ethyl-5-methyl-6-oxo-5,6,7,8-tetrahydropteridin-2-yl]amino}-3-methoxybenzoyl)amino]phenyl}butanoyl)-L-leucine] belongs below 100 nM. Still for that read-out and setting: to `CC[C@@H]1C(=O)N(C)c2cnc(Nc3ccc(C(=O)NC4CCN(CCCC(=O)N[C@H](C(=O)O)c5ccccc5)CC4)cc3OC)nc2N1C1CCCC1` [Example 20, (2S)-[(4-{4-[(4-{[(7R)-8-Cyclopentyl-7-ethyl-5-methyl-6-oxo-5,6,7,8-tetrahydropteridin-2-yl]amino}-3-methoxybenzoyl)amino]piperidin-1-yl}butanoyl)amino](phenyl)acetic acid] belongs below 100 nM; to `CC[C@@H]1C(=O)N(C)c2cnc(Nc3c(F)cc(/C=C/CCCC(=O)N[C@@H](CC(C)C)C(=O)O)cc3F)nc2N1C1CCCC1` [Example 30, N-[(5E)-6-(4-{[(7R)-8-Cyclopentyl-7-ethyl-5-methyl-6-oxo-5,6,7,8-tetrahydropteridin-2-yl]amino}-3,5-difluorophenyl)hex-5-enoyl]-L-leucine], below 100 nM; to `CC[C@@H]1C(=O)N(C)c2cnc(Nc3ccc(/C=C/CCCC(=O)N[C@@H](CC(C)C)C(=O)O)cc3F)nc2N1C1CCCC1` [Example 28, N-[(5E)-6-(4-{[(7R)-8-Cyclopentyl-7-ethyl-5-methyl-6-oxo-5,6,7,8-tetrahydropteridin-2-yl]amino}-3-fluorophenyl)hex-5-enoyl]-L-leucine], below 100 nM.

Take `CC[C@@H]1C(=O)N(C)c2cnc(Nc3ccc(C(=O)NC4CCN(CCCCC(=O)N[C@@H](CC(C)C)C(=O)O)CC4)cc3OC)nc2N1C1CCCC1` [Example 23, N-(5-[4-[(4-{[(7R)-8-Cyclopentyl-7-ethyl-5-methyl-6-oxo-5,6,7,8-tetrahydropteridin-2-yl]amino}-3-methoxybenzoyl)amino]piperidin-1-yl]pentanoyl)-L-leucine]: the IC50 on PLK1 is below 100 nM. Consider `CC[C@@H]1C(=O)N(C)c2cnc(Nc3ccc(C(=O)N[C@H]4CC[C@@H](CCC(=O)N[C@@H](CC(C)C)C(=O)O)CC4)cc3OC)nc2N1C1CCCC1` [Example 31, N-(3-{cis-4-[(4-{[(7R)-8-Cyclopentyl-7-ethyl-5-methyl-6-oxo-5,6,7,8-tetrahydropteridin-2-yl]amino}-3-methoxybenzoyl)amino]cyclohexyl}propanoyl)-L-leucine], for which, on PLK1, the IC50 is below 100 nM. `CC[C@@H]1C(=O)N(C)c2cnc(Nc3ccc(CCCCCC(=O)N[C@@H](CC(C)C)C(=O)O)cc3F)nc2N1C1CCCC1` [Example 29, N-[6-(4-{[(7R)-8-Cyclopentyl-7-ethyl-5-methyl-6-oxo-5,6,7,8-tetrahydropteridin-2-yl]amino}-3-fluorophenyl)hexanoyl]-L-leucine]: the IC50 on PLK1 is below 100 nM. As to `CC[C@@H]1C(=O)N(C)c2cnc(Nc3ccc(C(=O)NC4CCN(CCCC(=O)N[C@@H](C(=O)O)C5CCCCC5)CC4)cc3OC)nc2N1C1CCCC1` [Example 22, (2R)-Cyclohexyl[(4-{4-[(4-{[(7R)-8-cyclopentyl-7-ethyl-5-methyl-6-oxo-5,6,78-tetrahydropteridin-2-yl]amino}-3-methoxybenzoyl)amino]piperidin-1-yl}butanoyl)amino]acetic acid], the IC50 on PLK1 is below 100 nM. For `CC[C@@H]1C(=O)N(C)c2cnc(Nc3ccc(C(=O)NC4CCN(CCNC(=O)N[C@H](C(=O)O)C5CCCCC5)CC4)cc3OC)nc2N1C1CCCC1` [Example 25, (2S)-Cyclohexyl{[(2-{4-[(4-{[(7R)-8-cyclopentyl-7-ethyl-5-methyl-6-oxo-5,6,7,8-tetrahydropteridin-2-yl]amino}-3-methoxybenzoyl)amino]piperidin-1-yl}ethyl)carbamoyl]amino}acetic acid], the IC50 at PLK1 is below 100 nM. Take `CC[C@@H]1C(=O)N(C)c2cnc(Nc3ccc(C(=O)NC4CCN(CCCC(=O)N[C@@H](C(=O)O)c5ccccc5)CC4)cc3OC)nc2N1C1CCCC1` [Example 21, (2R)-[(4-{4-[(4-{[(7R)-8-Cyclopentyl-7-ethyl-5-methyl-6-oxo-5,6,7,8-tetrahydropteridin-2-yl]amino}-3-methoxybenzoyl)amino]piperidin-1-yl}butanoyl)amino](phenyl)acetic acid]: the IC50 at PLK1 is below 100 nM. `CC[C@@H]1C(=O)N(C)c2cnc(Nc3ccc(C(=O)NC4CCN(CC(=O)N[C@@H](CC(C)C)C(=O)O)CC4)cc3OC)nc2N1C1CCCC1` [Example 24, N-({4-[(4-{[(7R)-8-Cyclopentyl-7-ethyl-5-methyl-6-oxo-5,6,7,8-tetrahydropteridin-2-yl]amino}-3-methoxybenzoyl)amino]piperidin-1-yl}acetyl)-L-leucine]: the IC50 at PLK1 is below 100 nM.

The record behind these values is patent US20100004250A1, “PTERIDINE DERIVATIVES AS POLO-LIKE KINASE INHIBITORS USEFUL IN THE TREATMENT OF CANCER” (CHROMA THERAPEUTICS LTD., priority 2006, published 2010).
